Source: ChEMBL document CHEMBL1201862, “PubChem BioAssay data set” (2004)
Activity calls are given as the source filed them.

Assays:
Large T antigen = Large T antigen (Simian virus 40, UniProt P03070); assay type: functional, Betapolyomavirus macacae;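 also: Confirmatory-stage PubChem screen for compounds that inhibit SV40 T antigen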
[1] = biological target: T1, Corticotropin-releasing factor receptor 2/Corticotropin-releasing factor-binding protein (Homo sapiens, UniProt P24387+Q13324); assay: activators of CRF receptor 2 with binding protein – uHTS hits, confirmation (AID 602473); assay type: functional; settings: read-out: EC50_Mean
T1 sequence (Q13324 whole entry): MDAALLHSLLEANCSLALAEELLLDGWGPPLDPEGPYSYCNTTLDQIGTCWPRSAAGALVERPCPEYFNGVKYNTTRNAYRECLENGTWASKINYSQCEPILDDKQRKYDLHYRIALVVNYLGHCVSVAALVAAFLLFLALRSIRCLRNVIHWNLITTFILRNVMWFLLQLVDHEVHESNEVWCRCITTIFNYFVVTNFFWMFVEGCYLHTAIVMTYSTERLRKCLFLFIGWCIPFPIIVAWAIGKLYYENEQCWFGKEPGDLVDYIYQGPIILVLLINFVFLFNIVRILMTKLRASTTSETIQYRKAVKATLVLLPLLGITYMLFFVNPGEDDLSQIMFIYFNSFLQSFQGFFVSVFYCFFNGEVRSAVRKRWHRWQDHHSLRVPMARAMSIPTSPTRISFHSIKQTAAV
T1 sequence (P24387 whole entry): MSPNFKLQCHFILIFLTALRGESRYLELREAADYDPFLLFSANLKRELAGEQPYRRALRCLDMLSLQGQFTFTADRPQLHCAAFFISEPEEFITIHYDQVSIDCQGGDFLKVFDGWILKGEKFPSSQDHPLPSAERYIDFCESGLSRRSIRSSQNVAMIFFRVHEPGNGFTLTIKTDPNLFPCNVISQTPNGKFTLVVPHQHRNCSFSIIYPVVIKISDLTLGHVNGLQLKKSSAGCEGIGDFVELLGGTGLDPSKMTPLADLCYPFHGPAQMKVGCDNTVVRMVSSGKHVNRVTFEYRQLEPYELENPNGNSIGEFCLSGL

[2] = biological target: T1, Corticotropin-releasing factor receptor 2/Corticotropin-releasing factor-binding protein; assay: Dose Response confirmation of uHTS hits for small molecule antagonists of the CRF-binding protein and CRF-R2 receptor complex.; assay type: functional; settings: read-out: IC50_Mean
[3] = biological target: T2, High affinity choline transporter 1 (Homo sapiens, UniProt Q9GZV3); assay: CHT inhibitors, dose response, cell-based, 5-point CRC, membrane potential dye (AID 504840); assay type: functional
T2 sequence (Q9GZV3 whole entry): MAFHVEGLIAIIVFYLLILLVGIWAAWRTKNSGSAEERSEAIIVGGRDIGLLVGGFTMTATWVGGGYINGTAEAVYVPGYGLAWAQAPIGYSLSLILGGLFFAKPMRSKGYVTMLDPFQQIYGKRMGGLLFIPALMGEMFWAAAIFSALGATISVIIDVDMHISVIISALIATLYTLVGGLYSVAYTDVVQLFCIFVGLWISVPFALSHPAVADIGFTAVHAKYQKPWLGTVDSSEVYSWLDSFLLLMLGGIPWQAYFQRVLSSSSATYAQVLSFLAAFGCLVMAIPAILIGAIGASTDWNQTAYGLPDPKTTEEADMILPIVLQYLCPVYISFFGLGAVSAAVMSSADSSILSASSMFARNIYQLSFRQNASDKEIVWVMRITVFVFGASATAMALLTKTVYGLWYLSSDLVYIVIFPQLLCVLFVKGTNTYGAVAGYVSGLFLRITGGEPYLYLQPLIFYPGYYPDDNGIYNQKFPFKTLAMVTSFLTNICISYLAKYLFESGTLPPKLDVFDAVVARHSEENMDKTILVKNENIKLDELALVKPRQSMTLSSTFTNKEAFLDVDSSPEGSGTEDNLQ

Paired box protein Pax-8 = Paired box protein Pax-8 (Homo sapiens, UniProt Q06710); assay: inhibitors of PAX8-driven TPO luciferase reporter, dose response, RMG-I cells, cherry-pick (AID 687027); assay type: functional, cell-based;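 also: luciferase reporter driven by Pax8 target thyroperoxidase promoter measured by SteadyGlo luminescence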
Chain of Paired box protein Pax-8 (Q06710 whole entry, the tested form may be a part): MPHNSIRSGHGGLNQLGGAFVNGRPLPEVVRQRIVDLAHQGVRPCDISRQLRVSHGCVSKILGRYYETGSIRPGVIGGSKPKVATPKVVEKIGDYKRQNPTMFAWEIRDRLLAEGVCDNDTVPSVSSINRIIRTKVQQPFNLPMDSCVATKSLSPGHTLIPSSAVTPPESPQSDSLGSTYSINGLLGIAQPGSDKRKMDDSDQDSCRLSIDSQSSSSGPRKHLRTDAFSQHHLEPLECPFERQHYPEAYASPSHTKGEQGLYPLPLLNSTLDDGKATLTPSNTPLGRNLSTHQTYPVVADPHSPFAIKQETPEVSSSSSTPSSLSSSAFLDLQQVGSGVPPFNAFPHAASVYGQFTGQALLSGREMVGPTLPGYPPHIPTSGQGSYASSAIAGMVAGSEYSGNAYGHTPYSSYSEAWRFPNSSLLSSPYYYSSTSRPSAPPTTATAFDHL

Fatty acid synthase [4] = biological target: T3, Fatty acid synthase (Homo sapiens, UniProt P49327); assay: FAS thioesterase domain inhibitors, dose response, biochemical, endpoint fluorescence intensity, uHTS hits (AID 624327); assay type: functional;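 also: fluorescence from hydrolysis of an O-methyl fluorescein acyl ester substrate by the enzyme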
T3 sequence (P49327 whole entry, the tested form may be a part): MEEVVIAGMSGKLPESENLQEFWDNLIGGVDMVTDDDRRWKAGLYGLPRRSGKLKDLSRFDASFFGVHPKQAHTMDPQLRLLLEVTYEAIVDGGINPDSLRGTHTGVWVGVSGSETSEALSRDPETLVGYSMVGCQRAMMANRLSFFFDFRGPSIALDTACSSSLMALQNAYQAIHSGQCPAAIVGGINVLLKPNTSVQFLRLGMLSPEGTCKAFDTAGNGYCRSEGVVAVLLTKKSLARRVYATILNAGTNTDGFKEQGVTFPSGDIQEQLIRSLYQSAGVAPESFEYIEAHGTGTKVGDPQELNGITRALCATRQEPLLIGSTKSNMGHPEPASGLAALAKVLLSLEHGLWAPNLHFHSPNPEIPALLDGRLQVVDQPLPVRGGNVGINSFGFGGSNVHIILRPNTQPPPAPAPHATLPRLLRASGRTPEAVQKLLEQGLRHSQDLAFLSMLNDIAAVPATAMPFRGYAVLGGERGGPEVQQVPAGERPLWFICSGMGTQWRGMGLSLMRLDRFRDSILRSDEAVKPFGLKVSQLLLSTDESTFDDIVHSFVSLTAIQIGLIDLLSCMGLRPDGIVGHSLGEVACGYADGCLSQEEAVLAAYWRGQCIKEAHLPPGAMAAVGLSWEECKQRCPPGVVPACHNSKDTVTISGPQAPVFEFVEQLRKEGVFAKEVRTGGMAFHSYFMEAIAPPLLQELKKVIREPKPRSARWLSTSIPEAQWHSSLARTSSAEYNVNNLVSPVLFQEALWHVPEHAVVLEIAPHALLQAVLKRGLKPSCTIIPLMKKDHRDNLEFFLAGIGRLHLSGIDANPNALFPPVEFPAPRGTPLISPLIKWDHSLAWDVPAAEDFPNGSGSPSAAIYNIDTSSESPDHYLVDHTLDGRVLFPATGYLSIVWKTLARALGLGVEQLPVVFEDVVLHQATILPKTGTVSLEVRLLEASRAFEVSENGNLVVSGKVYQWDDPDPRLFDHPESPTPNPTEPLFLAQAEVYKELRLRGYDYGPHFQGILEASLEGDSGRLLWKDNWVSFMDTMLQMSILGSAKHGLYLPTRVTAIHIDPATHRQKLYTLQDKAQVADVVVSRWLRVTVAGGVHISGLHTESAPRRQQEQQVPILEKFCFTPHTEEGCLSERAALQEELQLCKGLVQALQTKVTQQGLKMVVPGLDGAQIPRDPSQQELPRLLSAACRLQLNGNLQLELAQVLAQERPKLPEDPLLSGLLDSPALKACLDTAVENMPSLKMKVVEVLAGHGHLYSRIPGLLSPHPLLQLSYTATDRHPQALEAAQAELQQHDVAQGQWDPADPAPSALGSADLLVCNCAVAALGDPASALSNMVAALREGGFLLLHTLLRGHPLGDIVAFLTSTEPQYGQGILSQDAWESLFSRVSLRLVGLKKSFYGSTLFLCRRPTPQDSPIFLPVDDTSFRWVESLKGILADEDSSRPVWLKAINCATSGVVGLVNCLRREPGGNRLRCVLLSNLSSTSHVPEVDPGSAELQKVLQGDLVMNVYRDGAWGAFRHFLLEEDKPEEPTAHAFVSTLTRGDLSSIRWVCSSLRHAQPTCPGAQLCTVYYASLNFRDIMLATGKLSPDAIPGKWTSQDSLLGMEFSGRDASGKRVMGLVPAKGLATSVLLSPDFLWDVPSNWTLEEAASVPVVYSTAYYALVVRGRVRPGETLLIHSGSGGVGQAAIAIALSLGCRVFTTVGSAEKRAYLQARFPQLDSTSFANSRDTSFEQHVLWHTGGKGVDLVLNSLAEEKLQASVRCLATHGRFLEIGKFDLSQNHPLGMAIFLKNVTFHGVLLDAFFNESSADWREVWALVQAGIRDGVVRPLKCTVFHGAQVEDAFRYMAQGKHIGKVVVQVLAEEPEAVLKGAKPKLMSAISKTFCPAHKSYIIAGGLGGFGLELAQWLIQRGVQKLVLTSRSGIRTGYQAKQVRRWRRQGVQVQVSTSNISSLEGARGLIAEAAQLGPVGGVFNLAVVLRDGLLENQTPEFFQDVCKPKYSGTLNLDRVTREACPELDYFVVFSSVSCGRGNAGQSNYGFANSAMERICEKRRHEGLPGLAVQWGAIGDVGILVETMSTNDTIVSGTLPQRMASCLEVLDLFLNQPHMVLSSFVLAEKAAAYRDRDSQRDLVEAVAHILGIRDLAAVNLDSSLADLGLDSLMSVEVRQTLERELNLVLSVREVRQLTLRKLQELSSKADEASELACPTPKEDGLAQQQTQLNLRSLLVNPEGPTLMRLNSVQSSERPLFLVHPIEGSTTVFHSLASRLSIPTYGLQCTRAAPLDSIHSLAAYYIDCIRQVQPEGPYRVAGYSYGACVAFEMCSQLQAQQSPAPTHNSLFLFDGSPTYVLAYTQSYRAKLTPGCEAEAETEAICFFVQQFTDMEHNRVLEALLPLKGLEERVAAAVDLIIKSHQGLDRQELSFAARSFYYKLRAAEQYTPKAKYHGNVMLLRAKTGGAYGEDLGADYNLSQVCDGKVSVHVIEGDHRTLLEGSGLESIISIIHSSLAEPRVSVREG

Fatty acid synthase [5] = biological target: T3, Fatty acid synthase; assay: FAS thioesterase domain inhibitors, dose response, biochemical, kinetic fluorescence intensity (AID 624326); assay type: functional;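 also: rate of fluorescence rise from hydrolysis of a fluorogenic O-methyl fluorescein ester substrate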
[6] = system: Streptococcus sp. 'group A'; assay: growth inhibition of control SK(-) GAS strain, dose response, counter-screen for streptokinase expression inhibitor project, luminescence, kanamycin, BacTiterGlo, confirmation (AID 1900); assay type: functional, organism-based
Streptococcus = assay: Group A Streptococcus viability loss, dose response, counter-screen for streptokinase expression inhibitor project, luminescence, BacTiterGlo (AID 1915); assay type: functional, organism-based;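 also: potency for reduction of bacterial viability or growth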
Streptokinase A = biological target: T4, Streptokinase A (Streptococcus pyogenes serotype M1, UniProt P10520); assay: S. pyogenes streptokinase expression inhibitors, potency, dose response, plasminogen activation absorbance, OD405 (AID 1914); assay type: functional, Streptococcus pyogenes M1 GAS;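 also: secreted streptokinase activity via plasminogen activation per viability signal from cell pellet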
T4 sequence (P10520 whole entry): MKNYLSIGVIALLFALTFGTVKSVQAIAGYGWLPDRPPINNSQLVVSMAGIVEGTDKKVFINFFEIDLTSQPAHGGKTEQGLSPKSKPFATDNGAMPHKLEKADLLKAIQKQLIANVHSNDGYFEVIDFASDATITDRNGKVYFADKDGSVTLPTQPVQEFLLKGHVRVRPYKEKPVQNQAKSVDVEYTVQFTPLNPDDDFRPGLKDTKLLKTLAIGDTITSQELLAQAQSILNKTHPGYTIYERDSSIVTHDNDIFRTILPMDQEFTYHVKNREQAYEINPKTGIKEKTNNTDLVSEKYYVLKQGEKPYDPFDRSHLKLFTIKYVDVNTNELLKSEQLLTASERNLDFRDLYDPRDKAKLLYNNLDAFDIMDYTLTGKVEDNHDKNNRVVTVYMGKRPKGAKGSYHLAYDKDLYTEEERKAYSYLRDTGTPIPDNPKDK

[7] = Luminescence Cell-Based Dose Response HTS to Identify Activators of Luciferase Translation or Activity in H4 […] Cells. [Related pubchem assays: 1829 (Project Summary), 1814 (Primary HTS)]; assay type: functional
H4 = assay: Luminescence Cell-Based Dose Response HTS to Identify Activators of 5'UTR Stem-Loop Driven Prion Protein mRNA Translation in H4 Neuroglioblastoma Cells. [Related pubchem assays: 1829 (Project Summary), 1814 (Primary HTS)]; assay type: functional; settings: Homo sapiens
[8] = Luminescence Cell-Based Dose Confirmation HTS to Identify Activators of 5'UTR Stem-Loop Driven Alpha-Synuclein mRNA Translation in H4 Neuroglioblastoma Cells. [Related pubchem assays: 1829 (Project Summary), 1814 (Primary HTS)]; assay type: functional
Cytochrome P450 1A2 = biological target: T5, Cytochrome P450 1A2 (Homo sapiens, UniProt P05177);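 also: PubChem cytochrome P450 panel assay, CYP1A2 panel member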
T5 sequence (P05177 whole entry): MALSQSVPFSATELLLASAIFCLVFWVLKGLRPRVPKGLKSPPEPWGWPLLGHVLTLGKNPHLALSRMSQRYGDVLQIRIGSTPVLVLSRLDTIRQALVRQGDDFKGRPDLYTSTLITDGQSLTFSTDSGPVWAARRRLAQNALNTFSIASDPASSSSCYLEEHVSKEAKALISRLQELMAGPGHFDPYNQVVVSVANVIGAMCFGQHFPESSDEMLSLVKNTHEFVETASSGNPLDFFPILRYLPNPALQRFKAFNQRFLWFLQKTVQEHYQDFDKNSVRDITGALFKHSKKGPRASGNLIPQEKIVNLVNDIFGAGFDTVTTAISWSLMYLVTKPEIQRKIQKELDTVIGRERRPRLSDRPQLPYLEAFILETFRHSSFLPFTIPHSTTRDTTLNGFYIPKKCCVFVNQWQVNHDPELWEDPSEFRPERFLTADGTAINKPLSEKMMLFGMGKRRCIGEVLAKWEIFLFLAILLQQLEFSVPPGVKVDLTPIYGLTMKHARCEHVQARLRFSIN

Cytochrome P450 3A4 = Cytochrome P450 3A4 (Homo sapiens, UniProt P08684);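 also: CYP3A4 tested as one member of a cytochrome P450 panel screen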
Chain of Cytochrome P450 3A4 (P08684 whole entry): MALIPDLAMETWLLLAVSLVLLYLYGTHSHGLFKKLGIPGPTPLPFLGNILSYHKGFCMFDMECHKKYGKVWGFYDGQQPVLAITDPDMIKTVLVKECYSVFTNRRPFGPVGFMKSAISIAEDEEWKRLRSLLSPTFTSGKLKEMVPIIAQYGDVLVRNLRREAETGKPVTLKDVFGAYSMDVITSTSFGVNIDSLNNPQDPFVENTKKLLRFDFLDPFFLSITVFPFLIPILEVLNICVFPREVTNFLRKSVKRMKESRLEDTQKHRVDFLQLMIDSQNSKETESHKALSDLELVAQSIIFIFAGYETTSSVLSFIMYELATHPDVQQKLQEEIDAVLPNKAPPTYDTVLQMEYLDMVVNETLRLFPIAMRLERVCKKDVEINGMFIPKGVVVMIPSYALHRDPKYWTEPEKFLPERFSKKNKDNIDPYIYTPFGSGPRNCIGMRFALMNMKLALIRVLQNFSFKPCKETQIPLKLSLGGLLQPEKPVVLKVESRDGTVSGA

Chain of Large T antigen (P03070 whole entry): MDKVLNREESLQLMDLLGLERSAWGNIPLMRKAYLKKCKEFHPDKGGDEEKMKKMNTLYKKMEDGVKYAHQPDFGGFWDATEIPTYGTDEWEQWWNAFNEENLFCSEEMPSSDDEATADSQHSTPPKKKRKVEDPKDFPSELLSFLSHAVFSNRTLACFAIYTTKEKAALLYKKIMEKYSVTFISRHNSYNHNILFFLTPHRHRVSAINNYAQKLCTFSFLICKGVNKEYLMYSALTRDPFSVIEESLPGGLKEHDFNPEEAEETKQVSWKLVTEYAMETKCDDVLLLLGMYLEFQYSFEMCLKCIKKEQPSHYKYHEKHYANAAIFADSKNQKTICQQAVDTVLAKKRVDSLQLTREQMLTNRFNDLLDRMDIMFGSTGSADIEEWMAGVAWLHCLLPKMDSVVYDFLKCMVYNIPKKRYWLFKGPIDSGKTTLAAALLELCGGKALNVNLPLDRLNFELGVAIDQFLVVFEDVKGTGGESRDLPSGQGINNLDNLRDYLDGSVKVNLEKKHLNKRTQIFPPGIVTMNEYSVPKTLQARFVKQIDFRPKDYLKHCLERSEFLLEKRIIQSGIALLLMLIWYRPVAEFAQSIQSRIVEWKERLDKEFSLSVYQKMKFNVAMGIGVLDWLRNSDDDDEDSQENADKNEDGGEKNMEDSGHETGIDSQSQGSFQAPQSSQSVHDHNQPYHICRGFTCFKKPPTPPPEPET

C=CCN=C(S)Nc1ccc(N(C)C)cc1
IC50 (Large T antigen): 3.24 µM (active)

CCOc1ccc(CCNC(=O)c2cccc(NC3=NC4CS(=O)(=O)CC4S3)c2)cc1OCC (configuration not stated)
EC50 [1]: > 53 µM (inactive) | IC50 [2]: > 47.1 µM (inactive)

CC1CCCCC1NC(=O)Cn1nnc(-c2ccc(Cl)cc2)n1 (configuration not stated)
IC50 [3]: 6.61 µM (active)

CC(=O)OCCOCn1cnn2c(=O)c(Br)c(C)nc12
IC50 [3]: 13.5 µM (active)

CCOc1cc(N2CCOCC2)c(OCC)cc1NC(=O)Cc1ccccc1
IC50 [3]: 13.2 µM (active)

Cc1ccc(S(=O)(=O)N(C)C[C@@H]2Oc3c(NC(=O)c4ccc(-c5nccs5)cc4)cccc3C(=O)N([C@@H](C)CO)C[C@@H]2C)cc1
AC50 (Paired box protein Pax-8): 18.3 µM (active)

O=C(CN1C(=O)NC2(CCCc3ccccc32)C1=O)N1CCc2ccccc2C1 (configuration not stated)
IC50 [3]: 13.5 µM (active)

O=C1NC(=S)S/C1=C/c1ccc(N2CCOCC2)o1
IC50 (Large T antigen): 18.4 µM (active)

CC(C)c1ccc(S(=O)(=O)N2CCC(C(=O)NCC3(N(C)C)CCCCC3)CC2)cc1
IC50 [3]: 12.6 µM (active)

CCn1c(SCC(=O)Nc2ccc(N(C)C)cc2)nnc1C1CC1
IC50 (Large T antigen): 9.49 µM (active)

COc1ccc(S(=O)(=O)Nc2nc3ccccc3nc2NCc2ccc3c(c2)OCO3)cc1
EC50 [1]: > 53 µM (inactive) | IC50 [2]: > 47.1 µM (inactive)

COc1cc(CNc2ccc(N3CCCCC3)cc2)ccc1OCC(=O)NC(C)(C)C
IC50 [3]: 6.55 µM (active) | IC50 (Large T antigen): 12.5 µM (active)

CC(C)c1ccc(CSc2ccc(S(=O)(=O)N3CCOCC3)cn2)cc1
IC50 (Fatty acid synthase [4]): 5.98 µM (active) | IC50 (Fatty acid synthase [5]): 7.91 µM (active)

CCc1ccc(C(=O)COC(=O)c2cc([N+](=O)[O-])ccc2N2CCOCC2)cc1
IC50 (Fatty acid synthase [4]): 1.75 µM (active) | IC50 (Fatty acid synthase [5]): 2.16 µM (active)

CCOC(=O)c1ccc(NC(=O)CN2C(=O)CSC2=O)cc1
EC50 [1]: > 53 µM (inactive) | IC50 [2]: > 47.1 µM (inactive)

COc1ccc(N2CCN(C(=O)c3cc(C)oc3C)CC2)cc1
EC50 [6]: > 150 µM (not active) | EC50 (Streptococcus): > 150 µM (not active) | EC50 (Streptokinase A): > 150 µM (not active)

O=C(COc1ccccc1-c1ccccc1)NNC(=O)NC1CCCCC1
IC50 [3]: 15.8 µM (active) | EC50 [7]: > 120 µM (not active) | EC50 (H4): > 120 µM (not active) | EC50 [8]: > 120 µM (not active)

CSCC[C@H](NC(=O)c1ccc(Cl)c([N+](=O)[O-])c1)c1nc2ccccc2[nH]1
IC50 (Fatty acid synthase [4]): 11.1 µM (active) | IC50 (Fatty acid synthase [5]): 6.14 µM (active)

CCCC(=O)NC(C)c1nc2ccccc2[nH]1 (configuration not stated)
EC50 [1]: > 53 µM (inactive) | IC50 [2]: > 47.1 µM (inactive)

CN1CC(=O)N(CC(=O)N2CCC(Cc3ccccc3)CC2)C1=O
EC50 [1]: > 53 µM (inactive) | IC50 [2]: > 47.1 µM (inactive)

CC(=NNc1cc(C)c2ccccc2n1)c1ccccn1
AC50 (Paired box protein Pax-8): 7.4 µM (active)

O=C(COc1cccc(Oc2ccccc2)c1)Nc1ccc(SC(F)F)cc1
IC50 (Fatty acid synthase [4]): 4.12 µM (active) | IC50 (Fatty acid synthase [5]): 2.43 µM (active) | EC50 [6]: 14.4 µM (active) | EC50 (Streptococcus): > 150 µM (not active) | EC50 (Streptokinase A): 17.5 µM (active)

C[C@@H]1CN([C@@H](C)CO)C(=O)Cc2cc(NC(=O)CCC(F)(F)F)ccc2O[C@H]1CN(C)Cc1ccc(-c2ccccc2)cc1
AC50 (Paired box protein Pax-8): 8.61 µM (active)

Cc1cccc2c(CCNC(=O)c3ccc([N+](=O)[O-])cc3)c[nH]c12
EC50 [1]: > 53 µM (inactive) | IC50 [2]: > 47.1 µM (inactive)

CC(C)C(=O)c1ccc(O)c(O)c1
IC50 (Large T antigen): 30.9 µM (active)

CC1CN(Cc2nc3c(c(=O)[nH]c(=O)n3C)n2CCCc2ccccc2)CC(C)O1 (configuration not stated)
EC50 [6]: > 150 µM (not active) | EC50 (Streptococcus): > 150 µM (not active) | EC50 (Streptokinase A): > 150 µM (not active)

O=C(C[n+]1cccc2ccccc21)c1ccc(Br)cc1
IC50 [3]: 13.2 µM (active)

COc1cc(OC)cc(C(=O)Nc2nc(CC(=O)NCc3ccccc3OC)cs2)c1
EC50 [6]: > 150 µM (not active) | EC50 (Streptococcus): > 150 µM (not active) | EC50 (Streptokinase A): > 150 µM (not active)

COc1cc(N(C)C)c([N+](=O)[O-])cc1C(=O)NC(C)CNc1ccc([N+](=O)[O-])cc1Cl (configuration not stated)
IC50 (Fatty acid synthase [4]): 6.26 µM (active) | IC50 (Fatty acid synthase [5]): 5.79 µM (active)

O=C(Nc1cccc([N+](=O)[O-])c1)NC1CCCCCCC1
IC50 (Fatty acid synthase [4]): 14.8 µM (active) | IC50 (Fatty acid synthase [5]): 15.2 µM (active)

Cc1cc(C)n(CCC(=O)N=Nc2c(O)[nH]c3ccc(Br)cc23)n1
EC50 [1]: > 53 µM (inactive) | IC50 [2]: > 47.1 µM (inactive)

CSCC[C@H](NC(=O)c1nn(C)c(=O)c2ccccc12)c1nc2ccccc2[nH]1
EC50 [6]: 1.06 µM (active) | AC50 (Cytochrome P450 1A2): 17.8 µM (inconclusive) | EC50 (Streptococcus): 19.8 µM (active) | AC50 (Cytochrome P450 3A4): 12.6 µM (inconclusive) | EC50 (Streptokinase A): > 150 µM (not active)
